Measurements: article PMC12355328 (ACS Omega, 2025)
In brackets after ≈: the same amount, converted by molar mass. Each block holds one compound with its values, some of them ahead of it. Residues, ends and D or L forms follow the SMILES beside them.

Experiments:
[1] = Dye-leakage assay, POPG/TOCL; conditions: 100 μM POPG/TOCL LUV; 298 K
[2] = Circular dichroism spectroscopy; format: physicochemical; conditions: 50 μM, 100 mM NaF, 10 mM KH2PO4, pH 7.5; averaged of three repeats, 298 K
[3] = Dye-leakage assay, POPE/POPG; conditions: 100 μM POPE/POPG LUV; 298 K
E. coli BAA 3051 = assay: MIC assay, ciprofloxacin-resistant E. coli; format: cell-based, Escherichia coli; conditions: E. coli BAA 3051 (ciprofloxacin-resistant); MHB, 6 h, OD600; concentration at which growth surpassed 10%
DNA gyrase = DNA gyrase (Escherichia coli, UniProt P0AES4+P0AES6); assay: DNA gyrase inhibition; format: biochemical
DnaK = DnaK (Escherichia coli, UniProt P0A6Y8); assay: DnaK binding assay
E. coli ATCC25922 = assay: MIC assay, ciprofloxacin-sensitive E. coli; format: cell-based, Escherichia coli; conditions: MHB, 6 h, OD600, concentration at which growth surpassed 10%

Chain of DnaK (P0A6Y8 whole entry): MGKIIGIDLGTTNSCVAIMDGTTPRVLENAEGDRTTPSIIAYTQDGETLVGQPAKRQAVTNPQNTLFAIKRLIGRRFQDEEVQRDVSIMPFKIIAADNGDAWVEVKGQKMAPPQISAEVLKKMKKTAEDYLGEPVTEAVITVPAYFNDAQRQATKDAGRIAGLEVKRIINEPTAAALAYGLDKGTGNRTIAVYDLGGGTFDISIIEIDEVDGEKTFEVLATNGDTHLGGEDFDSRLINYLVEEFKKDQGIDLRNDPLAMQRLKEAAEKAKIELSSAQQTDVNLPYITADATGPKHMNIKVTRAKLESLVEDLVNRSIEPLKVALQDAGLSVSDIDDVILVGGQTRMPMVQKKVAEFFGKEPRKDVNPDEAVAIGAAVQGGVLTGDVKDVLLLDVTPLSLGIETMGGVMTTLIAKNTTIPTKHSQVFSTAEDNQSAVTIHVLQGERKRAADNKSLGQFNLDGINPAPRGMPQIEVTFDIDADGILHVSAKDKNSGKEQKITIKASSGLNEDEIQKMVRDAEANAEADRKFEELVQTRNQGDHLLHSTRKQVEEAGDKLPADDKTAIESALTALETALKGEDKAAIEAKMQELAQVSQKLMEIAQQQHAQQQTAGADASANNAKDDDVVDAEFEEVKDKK

CD: conformation / aggregation in buffer (in words) [2]: not optically active in CD
SMILES: O=C(O)c1cn(C2CC2)c2cc(N3CCNCC3)c(F)cc2c1=O [ciprofloxacin]
leakage profile (in words) [1]: showed a similar trend as in POPC
leakage profile (in words) [3]: showed a similar trend to POPC

SMILES: CC[C@H](C)[C@H](NC(=O)[C@H](CCCNC(=N)N)NC(=O)[C@H](CCCNC(=N)N)NC(=O)[C@@H]1CCCN1C(=O)[C@@H]1CCCN1C(=O)[C@H](CCCNC(=N)N)NC(=O)[C@@H]1CCCN1C(=O)[C@H](CCCNC(=N)N)NC(=O)[C@@H]1CCCN1C(=O)[C@H](CC(C)C)NC(=O)[C@H](Cc1ccc(O)cc1)NC(=O)[C@@H]1CCCN1C(=O)[C@@H]1CCCN1C(=O)[C@H](CCCCN)NC(=O)[C@H](CC(=O)O)NC(=O)[C@@H](N)C(C)C)C(=O)N[C@@H](Cc1ccc(O)cc1)C(=O)N[C@@H](CC(N)=O)C(=O)N[C@@H](CCCNC(=N)N)C(N)=O [oncocin] (H-VDKPPYLPRPRPPRRIYNR-NH2)
MIC (E. coli BAA 3051): 1 µM (≈ 2.39 µg/mL)
IC50 (DNA gyrase): > 10000 nM
IC50 (DnaK): 1540 nM
Ki (DnaK): 390 nM
MIC (E. coli ATCC25922): 1 µM (≈ 2.39 µg/mL)
